Reference: US20160101076A1, “Use of Sumoylation Inhibitors for Treating Cancer” (priority 2013, published 2016)

How the values were obtained:
[1] = test system: sKD-C cells; test: Gene/protein expression and CD44+/CD24-/low FACS in sKD-C cells treated with sumoylation inhibitors; assay type: cell-based, human; conditions: for CD44+/CD24-/low population by FACS analysis / CD44 expression by Western blot: s-KD-C cells, FIG. 6A; for ability to repress CD44 expression with knockdown of TFAP2A: TFAP2A siRNA, Western blot FIG. 6B
Experimental: (§1) The human breast cancer cell lines (MCF-7, SKBR-3, BT-20, BT-549, MCF-10A) were obtained from American Type Culture Collection. sKD-C cells were subcloned from parental MCF-7 cells with stable knockdown of TFAP2C as described (Cyr et al., 2014). ER<-positive tumors and the basal cancer tumor were obtained from surgical resection specimens. Cell suspensions were prepared with gentle collagenase/hyaluronidase (Stemcells) (Ponti et al., 2005). A new cell line was established from the basal tumor cells, called IOWA-1T (manuscript in preparation).
Total RNA was isolated and analyzed as previously described. Expression values were normalized to the mean of 18S rRNA 4319413E-0803037 (Applied Biosystems) as endogenous control.
(§2) Western blots were performed as previously described (Cyr et al., 2014; Kulak et al., 2013). For immunoprecipitations anti-TFAP2A, anti-GFP antibody (Life Technologies) or IgG (#sc-2025, Santa Cruz Biotechnology) were cross-linked with Dynabeads protein A (Life Technologies). MCF7 protein was incubated with Dynabeads protein A-Abs complex, protein complexes were washed with DPBS (Gibco) with 0.01% Tween (Research Products International Corp.), and eluted with SDS loading buffer.
(§3) Cells were plated ([…]/10 cm2) and treated with 10 μM gingolic or anacardic acid (Sigma) for 2-4 days and collected for qPCR, Western blot and FACS analysis.
(§4) FACS analysis was performed as previously described (Roederer and Hardy, 2001).

[2] = test system: BT-20 cells; test: CD44 Western blot and CD44+/CD24-/low FACS in BT-20 cells; assay type: cell-based, human; conditions: for ability to repress CD44 expression with knockdown of TFAP2A: BT20 cells, TFAP2A siRNA, Western blot FIG. 6C; for CD44+/CD24-/low population by FACS analysis / CD44 expression by Western blot: BT-20 cells, FIG. 6A, 10 μM, 2-4 days
Experimental: as §1, §2, §3, §4

[3] = test system: undifferentiated thyroid cell line 8505c; test: CD44 Western blot in 8505c thyroid carcinoma; assay type: cell-based; conditions: 96 h treatment, FIG. 19
Experimental: FIG. 19: Western blot, CD44 downregulation, 8505c thyroid carcinoma was treated with ginkgolic and anacardic acids, 96 h.
Similar downregulation of stem cell marker CD44 was determined in pancreatic carcinoma Panc-1 cell line (FIG. 18) and undifferentiated thyroid cell line 8505c (FIG. 19) after 96 h treatment with SUMO inhibitors anacardic and ginkgolic acids. • Woodfield, G. W., Horan, A. D., Chen, Y. & Weigel, R. J. TFAP2C controls hormone response in breast cancer cells through multiple pathways of estrogen signaling. Cancer Res 67, 8439-8443 (2007). • Woodfield, G. W., Chen, Y., Bair, T. B., Domann, F. E. & Weigel, R. J. Identification of primary gene targets of TFAP2C in hormone responsive breast carcinoma cells. Genes Chromosomes Cancer 49, 948-962, doi:10.1002/gcc.20807 (2010). • Tan, S. K. et al. AP-2gamma regulates oestrogen receptor-mediated longrange chromatin interaction and gene transcription. Embo J 30, 2569-2581, doi:10.1038/emboj.2011.151 (2011). • Sorlie, T. et al. Gene expression patterns of breast carcinomas distinguish tumor subclasses with clinical implications. Proc Natl Acad Sci USA 98, 10869-10874. (2001). • Kao, J. et al. Molecular profiling of breast cancer cell lines defines relevant tumor models and provides a resource for cancer gene discovery. […]

[4] = sKD-C cells, compared to vehicle treatment, mRNA and protein (FIG. 5E), 10 μM, 2-4 days

| SMILES | CD44+/CD24-/low population by FACS analysis ([1]; 10 μM, 2-4 days) | CD44 expression by Western blot ([1]; 10 μM, 2-4 days) | ability to repress CD44 expression with knockdown of TFAP2A ([1]; sKD-C cells) | TFAP2C expression ([1]; sKD-C cells, compared to vehicle treatment, FIG. 5E) | FREM2 expression ([1]; sKD-C cells, compared to vehicle treatment, FIG. 5E, 10 μM, 2-4 days) | CD44 expression [1, 4] | ERα expression [1, 4] | ability to repress CD44 expression with knockdown of TFAP2A [2] | CD44+/CD24-/low population by FACS analysis [2] | CD44 expression by Western blot [2] | stem cell marker CD44 (Western blot) [3] |
| --- | --- | --- | --- | --- | --- | --- | --- | --- | --- | --- | --- |
| CCCCCC/C=C\CCCCCCCc1cccc(O)c1C(=O)O [GA, (Z)-6-(Pentadec-8-enyl)-2-hydroxybenzoic acid] | significantly reduced | inhibited | completely eliminated | without altering | induced | repressed | induced | completely eliminated | significantly reduced | inhibited | downregulation |
| CCCCCCCCCCCCCCCc1cccc(O)c1C(=O)O [AA, Anacardic acid (C15:0)] | significantly reduced | inhibited | completely eliminated |  |  |  |  | completely eliminated | significantly reduced | inhibited | downregulation |
